Patent US20150087627A1, “COMBINATION OF KINASE INHIBITORS AND USES THEREOF” (Intellikine LLC, priority 2011, published 2015)
Where two headings read alike, the source gives them in different places.

Key:
Assay type in all cases: biochemical
[1] = molecular target: T1, PI3K α (p110α/p85α) (Homo sapiens, UniProt P42336); experiment: PI 3-Kinase (human) HTRF assay, PI3K α; conditions: read-out: PI3K α IC50
T1 construct: purchased Upstate / Millipore Corporation

[2] = molecular target: T2, PI3K δ (Homo sapiens, UniProt O00329); experiment: PI 3-Kinase (human) HTRF assay, PI3K δ; conditions: read-out: PI3K δ IC50
T2 construct: purchased Upstate / Millipore Corporation

[3] = molecular target: T3, PI3K β (p110β/p85α) (Homo sapiens, UniProt P42338); experiment: PI 3-Kinase (human) HTRF assay, PI3K β; conditions: read-out: PI3K β IC50
T3 construct: purchased Upstate / Millipore Corporation
T3 sequence (P42338 whole entry): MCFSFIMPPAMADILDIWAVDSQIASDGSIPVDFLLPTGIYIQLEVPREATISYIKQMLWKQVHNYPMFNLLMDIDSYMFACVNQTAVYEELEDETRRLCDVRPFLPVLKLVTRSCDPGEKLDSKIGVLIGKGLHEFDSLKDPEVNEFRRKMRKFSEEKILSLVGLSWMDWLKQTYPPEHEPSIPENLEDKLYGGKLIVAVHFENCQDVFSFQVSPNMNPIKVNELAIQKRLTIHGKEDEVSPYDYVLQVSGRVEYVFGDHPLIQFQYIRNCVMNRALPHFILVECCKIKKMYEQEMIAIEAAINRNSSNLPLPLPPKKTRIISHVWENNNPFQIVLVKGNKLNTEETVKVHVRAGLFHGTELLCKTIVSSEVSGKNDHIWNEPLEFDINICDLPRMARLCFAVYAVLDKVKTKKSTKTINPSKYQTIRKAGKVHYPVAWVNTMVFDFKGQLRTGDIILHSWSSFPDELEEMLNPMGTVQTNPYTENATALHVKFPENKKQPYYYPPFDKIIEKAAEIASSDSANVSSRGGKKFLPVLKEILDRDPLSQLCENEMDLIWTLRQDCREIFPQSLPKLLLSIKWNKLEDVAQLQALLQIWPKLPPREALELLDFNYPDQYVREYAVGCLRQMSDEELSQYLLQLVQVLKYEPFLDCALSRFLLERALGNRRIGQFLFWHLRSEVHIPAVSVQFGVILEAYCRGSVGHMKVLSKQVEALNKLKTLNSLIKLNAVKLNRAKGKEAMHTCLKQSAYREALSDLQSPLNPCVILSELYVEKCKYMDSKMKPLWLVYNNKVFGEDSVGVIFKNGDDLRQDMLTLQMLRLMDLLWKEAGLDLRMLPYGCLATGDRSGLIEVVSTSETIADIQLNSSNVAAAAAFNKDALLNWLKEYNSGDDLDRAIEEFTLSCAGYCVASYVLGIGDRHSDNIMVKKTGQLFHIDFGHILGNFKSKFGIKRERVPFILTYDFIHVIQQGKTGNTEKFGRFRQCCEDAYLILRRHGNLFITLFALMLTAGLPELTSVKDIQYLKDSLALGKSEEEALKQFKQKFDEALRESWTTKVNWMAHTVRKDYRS
T3 sequence (P27986 whole entry partner): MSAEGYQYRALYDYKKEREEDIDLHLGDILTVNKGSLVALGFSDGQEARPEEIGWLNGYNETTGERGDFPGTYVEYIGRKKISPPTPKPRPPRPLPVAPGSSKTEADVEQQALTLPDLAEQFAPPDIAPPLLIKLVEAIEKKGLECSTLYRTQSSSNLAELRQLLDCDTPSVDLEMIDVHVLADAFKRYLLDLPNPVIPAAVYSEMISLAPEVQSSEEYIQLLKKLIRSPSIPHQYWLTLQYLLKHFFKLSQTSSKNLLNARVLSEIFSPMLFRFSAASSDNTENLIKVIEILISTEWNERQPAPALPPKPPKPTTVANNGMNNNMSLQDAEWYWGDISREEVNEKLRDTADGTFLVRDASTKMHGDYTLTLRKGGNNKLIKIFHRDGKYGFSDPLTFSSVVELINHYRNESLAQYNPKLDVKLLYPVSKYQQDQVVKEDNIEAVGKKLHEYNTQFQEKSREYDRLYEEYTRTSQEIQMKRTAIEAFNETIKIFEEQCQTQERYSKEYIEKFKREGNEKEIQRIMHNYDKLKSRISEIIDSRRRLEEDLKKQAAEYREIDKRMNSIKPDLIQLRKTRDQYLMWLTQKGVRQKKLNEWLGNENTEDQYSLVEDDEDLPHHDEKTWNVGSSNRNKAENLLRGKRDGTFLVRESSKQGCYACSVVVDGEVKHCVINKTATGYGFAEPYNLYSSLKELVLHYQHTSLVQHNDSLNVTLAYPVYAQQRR

T2 sequence (O00329 whole entry): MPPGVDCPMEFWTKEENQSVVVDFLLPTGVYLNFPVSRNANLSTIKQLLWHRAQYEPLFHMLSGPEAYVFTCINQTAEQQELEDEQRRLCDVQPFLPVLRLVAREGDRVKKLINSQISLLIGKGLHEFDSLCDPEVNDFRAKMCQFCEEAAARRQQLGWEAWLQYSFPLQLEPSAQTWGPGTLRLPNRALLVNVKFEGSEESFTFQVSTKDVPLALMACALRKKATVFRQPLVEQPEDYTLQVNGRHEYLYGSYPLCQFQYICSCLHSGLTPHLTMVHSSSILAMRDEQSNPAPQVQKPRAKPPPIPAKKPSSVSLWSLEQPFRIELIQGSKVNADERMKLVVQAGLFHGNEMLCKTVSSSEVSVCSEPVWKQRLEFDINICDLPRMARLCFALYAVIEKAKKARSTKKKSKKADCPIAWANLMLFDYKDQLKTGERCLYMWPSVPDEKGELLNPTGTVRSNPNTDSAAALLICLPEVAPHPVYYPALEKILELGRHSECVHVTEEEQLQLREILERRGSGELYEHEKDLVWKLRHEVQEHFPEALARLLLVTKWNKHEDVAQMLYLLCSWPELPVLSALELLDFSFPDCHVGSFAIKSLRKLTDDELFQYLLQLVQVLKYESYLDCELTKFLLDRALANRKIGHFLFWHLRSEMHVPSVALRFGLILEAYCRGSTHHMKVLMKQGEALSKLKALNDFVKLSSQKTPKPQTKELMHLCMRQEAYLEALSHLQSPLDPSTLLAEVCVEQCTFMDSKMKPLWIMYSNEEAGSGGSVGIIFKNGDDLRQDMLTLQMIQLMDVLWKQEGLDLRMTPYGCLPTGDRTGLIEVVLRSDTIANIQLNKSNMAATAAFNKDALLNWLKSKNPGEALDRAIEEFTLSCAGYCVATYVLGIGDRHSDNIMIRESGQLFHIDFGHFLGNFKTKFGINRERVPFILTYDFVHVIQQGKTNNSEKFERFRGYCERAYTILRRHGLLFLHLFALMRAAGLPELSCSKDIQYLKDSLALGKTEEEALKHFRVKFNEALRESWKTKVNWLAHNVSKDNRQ
T2 sequence (P27986 whole entry partner): as the sequence (P27986 whole entry partner) above
T1 sequence (P42336 whole entry): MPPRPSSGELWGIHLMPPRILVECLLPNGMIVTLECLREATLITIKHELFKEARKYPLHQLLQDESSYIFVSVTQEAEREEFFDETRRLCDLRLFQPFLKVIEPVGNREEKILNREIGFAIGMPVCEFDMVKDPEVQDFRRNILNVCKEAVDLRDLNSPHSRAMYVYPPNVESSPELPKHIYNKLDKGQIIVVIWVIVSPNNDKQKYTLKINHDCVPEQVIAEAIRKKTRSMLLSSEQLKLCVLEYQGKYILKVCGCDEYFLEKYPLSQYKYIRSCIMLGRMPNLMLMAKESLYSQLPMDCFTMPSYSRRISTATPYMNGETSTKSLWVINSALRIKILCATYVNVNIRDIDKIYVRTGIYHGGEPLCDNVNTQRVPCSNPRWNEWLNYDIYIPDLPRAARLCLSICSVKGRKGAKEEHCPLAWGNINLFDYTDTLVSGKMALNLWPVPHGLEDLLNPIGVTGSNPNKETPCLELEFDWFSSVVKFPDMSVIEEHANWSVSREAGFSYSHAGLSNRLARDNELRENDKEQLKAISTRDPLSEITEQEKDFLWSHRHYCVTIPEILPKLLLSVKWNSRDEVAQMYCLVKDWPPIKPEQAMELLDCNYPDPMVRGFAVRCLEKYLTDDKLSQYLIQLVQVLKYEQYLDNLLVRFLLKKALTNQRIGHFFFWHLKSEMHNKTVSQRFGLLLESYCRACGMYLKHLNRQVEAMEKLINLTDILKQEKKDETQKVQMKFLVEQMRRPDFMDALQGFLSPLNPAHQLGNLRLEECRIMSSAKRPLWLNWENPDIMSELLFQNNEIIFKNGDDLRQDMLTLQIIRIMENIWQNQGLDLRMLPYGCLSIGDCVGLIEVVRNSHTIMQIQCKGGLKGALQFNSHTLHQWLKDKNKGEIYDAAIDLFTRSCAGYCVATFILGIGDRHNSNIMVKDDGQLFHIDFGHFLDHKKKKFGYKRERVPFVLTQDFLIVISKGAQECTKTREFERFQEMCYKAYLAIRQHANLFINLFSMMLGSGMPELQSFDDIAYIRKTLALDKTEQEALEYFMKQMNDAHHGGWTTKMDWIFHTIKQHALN
T1 sequence (P27986 whole entry partner): as the sequence (P27986 whole entry partner) above

Compound | IC50 [1] [nM] | IC50 [2] [nM] | IC50 [3] [nM] | IC50 ([1]; Table 4 (PI3K α inhibitors)) [nM] | IC50 ([3]; Table 4 (PI3K α inhibitors)) [nM] | IC50 ([2]; Table 4 (PI3K α inhibitors)) [nM]
Nc1nc2cc(-c3ccc4nccc(-c5cn[nH]c5)c4c3)ccc2o1 [Compound 20] | < 100 | < 100 | < 100 | – | – | –
Nc1nc2cc(-c3ccc4ncc(-c5cccnc5)n4c3)ccc2o1 [Compound 37] | < 100 | < 100 | – | – | – | –
Nc1nc2cc(-c3ccc4ncc(C#CC5CC5)n4c3)ccc2o1 [Compound 39] | < 100 | < 100 | – | – | – | –
Nc1nc2cc(-c3ccc4ncn(C5CCNCC5)c(=O)c4c3)ccc2o1 [Compound 75] | < 100 | > 10000 | < 10000 | – | – | –
Nc1nc2cc(-c3ccc4ncc(-c5cn[nH]c5)nc4c3)ccc2o1 [Compound 78] | < 100 | < 1000 | < 1000 | – | – | –
Cn1cc(-c2cnc3ccc(-c4ccc5oc(N)nc5c4)cc3n2)cn1 [Compound 94] | < 100 | < 10000 | < 1000 | – | – | –
CN(C)CC(=O)N1CCC(Nc2ncnc3ccc(-c4ccc5oc(N)nc5c4)cc23)CC1 [Compound 103] | < 100 | < 1000 | < 1000 | – | – | –
Nc1nc2cc(-c3ccc4ncc(C(=O)N5CCS(=O)(=O)CC5)n4c3)ccc2o1 [Compound 107] | < 1000 | > 10000 | > 10000 | – | – | –
CN1CCN(c2cnc3ccc(-c4ccc5nc(N)oc5c4)cc3n2)CC1 [Compound 118] | < 1000 | > 10000 | < 100 | – | – | –
CC1CN(c2cnc3ccc(-c4ccc5oc(N)nc5c4)cc3n2)CC(C)N1 (stereo not shown) [Compound 131] | < 1000 | < 1000 | < 1000 | – | – | –
CC(N)C(=O)N1CCN(c2cnc3ccc(-c4ccc5oc(N)nc5c4)cc3n2)CC1 (stereo not shown) [Compound 134] | < 100 | < 1000 | < 1000 | – | – | –
CN1CCN(C(=O)c2cnc3ccc(-c4ccc5sc(N)nc5c4)cn23)CC1 [Compound 144] | < 1000 | > 10000 | < 10000 | – | – | –
CN1CCN(C(=O)c2cnc3ccc(-c4ccc5nc(N)oc5c4)cn23)CC1 [Compound 145] | < 1000 | > 10000 | < 10000 | – | – | –
CC1CN(c2cnc3ccc(-c4ccc5oc(N)nc5c4)cc3n2)CCO1 (stereo not shown) [Compound 173] | < 100 | < 10000 | < 1000 | – | – | –
C[C@H]1CN(c2cnc3ccc(-c4ccc5oc(N)nc5c4)cc3n2)CCN1 [Compound 178] | < 100 | < 1000 | < 100 | – | – | –
C[C@@H]1CN(c2cnc3ccc(-c4ccc5oc(N)nc5c4)cc3n2)CCN1 [Compound 179] | < 100 | – | < 1000 | – | – | –
CCNC(=O)c1cnc2ccc(-c3ccc4oc(N)nc4c3)cn12 [Compound 188] | < 100 | < 1000 | < 1000 | – | – | –
CS(=O)(=O)CCN1CCN(C(=O)c2cnc3ccc(-c4ccc5oc(N)nc5c4)cn23)CC1 [Compound 198] | < 100 | < 10000 | < 10000 | – | – | –
Nc1nc2cc(-c3ccc4ncc(C(=O)N5CCC(O)C5)n4c3)ccc2o1 (stereo not shown) [Compound 202] | < 100 | < 10000 | < 10000 | – | – | –
CN1CCN(C2CCN(c3cnc4ccc(-c5ccc6oc(N)nc6c5)cc4n3)CC2)CC1 [Compound 227] | < 100 | < 100 | < 1000 | – | – | –
CC(=O)Nc1nc2cc(-c3ccc4oc(N)nc4c3)ccc2o1 [Compound 244] | > 10000 | > 10000 | > 10000 | – | – | –
NC(=O)[C@@H]1CCCN1C(=O)C1CN(c2cnc3ccc(-c4ccc5oc(N)nc5c4)cc3n2)C1 [Compound 283] | < 100 | > 10000 | > 10000 | – | – | –
NC(=O)[C@H]1CCCN1C(=O)C1CN(c2cnc3ccc(-c4ccc5oc(N)nc5c4)cc3n2)C1 [Compound 284] | < 100 | < 10000 | < 10000 | – | – | –
CN(C)C1CCN(C(=O)c2cnc3ccc(-c4ccc5oc(N)nc5c4)cn23)CC1 [Compound 304] | < 1000 | > 10000 | > 10000 | – | – | –
Nc1nc2cc(-c3ccc4ncc(N5CC(N6CCNC(=O)C6)C5)nc4c3)ccc2o1 [Compound 325] | < 100 | < 10000 | < 1000 | – | – | –
C[C@H]1CN(c2cnc3cccc(-c4ccc5nc(N)oc5c4)c3n2)CCN1 [Compound 343] | > 10000 | > 10000 | < 10000 | – | – | –

Next, values leading:

IC50 [1] [nM] | IC50 [2] [nM] | IC50 [3] [nM] | IC50 ([1]; Table 4 (PI3K α inhibitors)) [nM] | IC50 ([3]; Table 4 (PI3K α inhibitors)) [nM] | IC50 ([2]; Table 4 (PI3K α inhibitors)) [nM] | Compound
< 100 | > 10000 | < 1000 | – | – | – | Nc1nc2cc(-c3ccc4ncc(C(=O)N5CCC(N)CC5)n4c3)ccc2o1 [Compound 204]
< 100 | < 1000 | < 1000 | – | – | – | CC(C)(N)C(=O)N1CCN(c2cnc3ccc(-c4ccc5oc(N)nc5c4)cc3n2)CC1 [Compound 213]
< 100 | < 10000 | < 1000 | – | – | – | Nc1nc2cc(-c3ccc4ncc(N5CC(O)C5)nc4c3)ccc2o1 [Compound 216]
< 100 | < 100 | < 1000 | – | – | – | Nc1nc2cc(-c3ccc4ncc(NCCCN5CCCC5)nc4c3)ccc2o1 [Compound 221]
< 1000 | > 10000 | < 1000 | – | – | – | Nc1nc2cc(-c3ccc4nnc(-c5ccncc5)n4c3)ccc2o1 [Compound 229]
< 10000 | < 10000 | < 1000 | – | – | – | CC(Oc1nc(-c2ccc3oc(N)nc3c2)cnc1N)C(F)(F)F (stereo not shown) [Compound 239]
< 1000 | > 10000 | > 10000 | – | – | – | NC(=O)[C@H]1CCCN1C(=O)c1cnc2ccc(-c3ccc4oc(N)nc4c3)cn12 [Compound 260]
< 100 | > 10000 | < 1000 | – | – | – | Nc1nc2cc(-c3ccc4ncc(N5CCN(C6CC6)CC5)nc4c3)ccc2o1 [Compound 261]
< 100 | – | < 10000 | – | – | – | Nc1nc2cc(-c3ccc4ncc(C(=O)N5CC[C@H](O)C5)n4c3)ccc2o1 [Compound 264]
< 100 | – | < 10000 | – | – | – | Nc1nc2cc(-c3ccc4ncc(C(=O)N5CC[C@@H](O)C5)n4c3)ccc2o1 [Compound 265]
< 1000 | < 10000 | > 10000 | – | – | – | CCN(CC)CCCn1cnc2ccc(-c3ccc4oc(N)nc4c3)cc2c1=O [Compound 281]
< 1000 | < 1000 | < 10000 | – | – | – | Nc1nc2cc(-c3ccc4ncc(C(=O)NCCN5CCCC5)n4c3)ccc2o1 [Compound 296]
< 10000 | > 10000 | < 10000 | – | – | – | Nc1nc2cc(-c3ccc4nnc(-c5cccnc5)n4c3)ccc2o1 [Compound 300]
< 1000 | > 10000 | < 1000 | – | – | – | C[C@H]1CN(c2cnc3ccc(-c4ccc5nc(N)sc5c4)cc3n2)CCN1 [Compound 308]
> 10000 | > 10000 | > 10000 | – | – | – | C[C@H]1CN(c2cnc3ccc(-c4cccc5c(N)nsc45)cc3n2)CCN1 [Compound 321]
< 1000 | < 10000 | < 1000 | – | – | – | CC1(C)CN(c2cnc3ccc(-c4ccc5oc(N)nc5c4)cc3n2)CCN1 [Compound 336]
> 10000 | > 10000 | > 10000 | – | – | – | C[C@H]1CN(c2cnc3cccc(-c4ccc5oc(N)nc5c4)c3n2)CCN1 [Compound 342]
< 100 | > 10000 | < 10000 | – | – | – | Nc1nc2cc(-c3ccn4ncc(C(=O)N5CCCC5)c4c3)ccc2o1 [Compound 346]

IC50 [1] [nM] | IC50 [2] [nM] | IC50 [3] [nM] | IC50 ([1]; Table 4 (PI3K α inhibitors)) [nM] | IC50 ([3]; Table 4 (PI3K α inhibitors)) [nM] | IC50 ([2]; Table 4 (PI3K α inhibitors)) [nM] | Compound
< 100 | – | < 1000 | – | – | – | CN(C)[C@H]1CCN(c2cnc3ccc(-c4ccc5oc(N)nc5c4)cc3n2)C1 [Compound 382]
< 10000 | – | – | – | – | – | CN1CCN(c2cnc3ccc(-c4ccc5oc(N)nc5c4)cc3n2)C(=O)C1 [Compound 390]
< 100 | – | > 10000 | – | – | – | C[C@H]1CCCN1C(=O)c1cnc2ccc(-c3ccc4oc(N)nc4c3)cn12 [Compound 482]
– | > 10000 | > 10000 | – | – | – | Cn1ncc2c(-c3ccc4ncc(C(=O)N5CCOCC5)n4c3)cncc21 [Compound 537]
– | < 10000 | < 10000 | – | – | – | Nc1nc2cc(-c3ccc4ncc(C(=O)NCCOCCO)n4c3)ccc2o1 [Compound 550]
– | – | – | < 1000 | < 100 | – | C[C@H]1CN(c2cnc3ccc(-c4ccc5oc(N)nc5c4)nc3n2)CCN1 [Compound 552]
– | – | – | < 1000 | – | > 10000 | Nc1nc2cc(-c3ccc4ncc(-c5cccnc5)nc4n3)ccc2o1 [Compound 554]
– | – | – | < 1000 | < 1000 | – | CN1CCN(c2cnc3ccc(-c4ccc5oc(N)nc5c4)nc3n2)CC1 [Compound 555]
– | – | – | < 100 | – | – | Nc1nc2cc(-c3ccc4ncc(-c5cccnc5)cc4n3)ccc2o1 [Compound 567]
– | – | – | < 100 | > 10000 | – | C[C@@H]1CN(C2CN(c3cnc4ccc(-c5ccc6oc(N)nc6c5)nc4n3)C2)CCN1C [Compound 576]
– | – | – | < 100 | – | – | NCC(=O)N1CCN(c2cnc3ccc(-c4ccc5oc(N)nc5c4)nc3n2)CC1 [Compound 584]
– | – | – | < 100 | < 1000 | – | C[C@@H]1CN(c2cnc3ccc(-c4ccc5oc(N)nc5c4)nc3c2)CCN1 [Compound 599]
– | – | – | – | > 10000 | > 10000 | C[C@@H]1COCCN1C1CN(c2cnc3ccc(-c4ccc5oc(N)nc5c4)nc3n2)C1 [Compound 600]
– | – | – | < 100 | – | < 1000 | C[C@@H]1CN(C2CN(c3cnc4ccc(-c5ccc6oc(N)nc6c5)nc4c3)C2)CCN1C [Compound 608]
– | – | – | < 100 | – | – | Nc1nc2cc(-c3ccc4ncc(N5CC(N6CCN(C7CC7)CC6)C5)nc4n3)ccc2o1 [Compound 620]
– | – | – | – | > 10000 | > 10000 | Nc1nc2cc(-c3cnc4ccc(N5CCOCC5)nc4c3)ccc2o1 [Compound 624]
– | – | – | – | > 10000 | > 10000 | CC(C)(N)C(=O)N1CCN(c2ccc3ncc(-c4ccc5oc(N)nc5c4)cc3n2)CC1 [Compound 633]
